# Source: patent US20100222421A1, “Usage of Baicalein in the Preparation of a Pharmaceutical Composition for the Treatment of Traumatic Brain Injury” (National Defense Medical Center, priority 2009, published 2010)
# Tests used:
# IL-1β-positive cells = experiment: Immunohistochemistry, IL-1β-positive cells after CCI injury; type: in vivo, rat; details: single-dose 30 mg kg^-1 i.p.; cortical tissue adjacent to contusion core, 1 day post-injury
# Procedure: A previously described CCI injury procedure was utilized (Chen et al., 2003). Male Sprague-Dawley rats, which have body weight of 250-300 g, were anaesthetized with sodium pentobarbital (i.p.; 50 mgkg^−1; Rhone Merieux, Harlow, UK) and placed in a stereotaxic frame. A 5-mm craniotomy was performed over the left parietal cortex, centered on the coronal suture and 3 mm lateral to the sagittal suture. Considerable care was taken to avoid injury to the underlying dura. Injury was made using a pneumatic piston with a rounded metal tip (2.5 mm diameter) that was angled 22.5° C. to the vertical so that the tip was perpendicular with the brain surface at the centre of the craniotomy. A velocity of 4 ms^−1 and a deformation depth 2 mm below the dura were used. The bone flap was immediately replaced and sealed, and the scalp was closed with sutures. Body temperature was monitored throughout the surgery by a rectal probe; temperature was maintained at 37.0±0.5° C. using a heated pad. […] Testing after injury was as follows: (1) real-time quantitative RT-PCR analysis for TNF-α, IL-1β and IL-6 mRNA expression at 6 h post-injury (n=7 for each group); (2) FluoroJade B (FJB) staining, TNF-α, IL-1β and IL-6 immunohistochemistry, as well as ELISA at 24 h post-injury to assess degenerative neurons and to determine cytokine expression (n=7 for each group). […]
# [1] = system: rats with controlled cortical impact (CCI) injury; experiment: Rotarod test after CCI injury; type: in vivo, rat; details: for performance on the rotarod test versus vehicle-treated rats: days 1 to 28, P<0.05
# Procedure: A previously described CCI injury procedure was utilized (Chen et al., 2003). Male Sprague-Dawley rats, which have body weight of 250-300 g, were anaesthetized with sodium pentobarbital (i.p.; 50 mgkg^−1; Rhone Merieux, Harlow, UK) and placed in a stereotaxic frame. A 5-mm craniotomy was performed over the left parietal cortex, centered on the coronal suture and 3 mm lateral to the sagittal suture. Considerable care was taken to avoid injury to the underlying dura. Injury was made using a pneumatic piston with a rounded metal tip (2.5 mm diameter) that was angled 22.5° C. to the vertical so that the tip was perpendicular with the brain surface at the centre of the craniotomy. A velocity of 4 ms^−1 and a deformation depth 2 mm below the dura were used. The bone flap was immediately replaced and sealed, and the scalp was closed with sutures. Body temperature was monitored throughout the surgery by a rectal probe; temperature was maintained at 37.0±0.5° C. using a heated pad. Rats were placed in a heated cage to maintain body temperature, while recovering from anaesthesia.
# Baicalein (30 mg kg^−1) dissolved in 10% dimethyl sulphoxide (0.25-0.3 mL) or a corresponding volume of vehicle (10% dimethyl sulphoxide) was administered i.p. immediately following injury or daily for 4 days (immediately, 25, 49 and 73 h) after injury. Behaviour testing using the rotarod, tactile adhesive removal, mNSS and beam walk tests was performed at 28 hours as well as 4, 7, 14, 21 and 28 days post-injury. […]
# An accelerating rotarod was used to measure rat motor function and balance (Hamm, 2001). Each rat was placed on the rotarod cylinder, and the time for which the animal remained on the rotarod was measured. […] One hour before CCI, the mean duration on the device was recorded with three rotarod measurements as the pre-injury baseline values. Post-injury latencies were expressed as a percentage of their respective baseline values to reduce inter-animal variability.
compound,measurement,setting,value
O=c1cc(-c2ccccc2)oc2cc(O)c(O)c(O)c12 [baicalein],reduction in IL-1β-positive cells relative to vehicle,IL-1β-positive cells,40%
same,"rotarod test, multiple-dose versus single-dose treatment","[1]; 30 mg kg^-1 i.p., days 1, 4, 7 and 21 after injury",significantly more effective
same,performance on the rotarod test versus vehicle-treated rats,[1]; multiple-dose 30 mg kg^-1 i.p. daily for 4 days,significantly better
same,performance on the rotarod test versus vehicle-treated rats,[1]; single-dose 30 mg kg^-1 i.p. immediately after injury,significantly better
